The source of these data is US20240287124A1, “PRODRUGS OF 4'-SUBSTITUTED NUCLEOSIDE REVERSE TRANSCRIPTASE INHIBITORS” (Merck Sharp & Dohme LLC, priority 2023, published 2024).

The nature of data set [1]: Plasma stability in frozen human plasma. Format: in vitro ADME. The conditions noted are these: frozen human plasma at 37° C., 0-3 hr; read-out: T1/2 Human Plasma (converted). As for the experimental part:
Plasma stability of the compounds was evaluated in frozen human plasma at 37° C. in a 10% CO2 environment. The stability of the analyte was assessed by determining the percentage of drug loss over the course of 0, 0.25, 0.5, 1, and 3 hr. In addition, the appearance of Compound A was determined for the same time course. Percent of drug loss as based on ratio with internal standard. Analyte concentrations were measured by LC/MS/MS. Linear regression was performed with log transformed percent of average TO values and linear time values. The elimination rate constant (ke) was calculated from the slope of this regression line and the half-life (T½) calculated based on the elimination rate constant.

Data set [2] concerns HIV-1 wild-type (R8) virus. Kind of data set: Viral KINetics in Green cells (VIKING) assay, HIV-1 replication in MT4-GFP reporter cells. The data set is classed as cell-based. Conditions: Human immunodeficiency virus 1, 10% normal human serum, MT4-GFP cells, HIV-1 wild-type (R8); read-out: Viking (10% NHS), IC50. Summed up: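 MT4-GFP cells infected overnight with HIV-1 R8 at MOI ~0.01, then added to compound plates in RPMI with 10% normal human serum; 10-point 3-fold dilutions (typically 4 μM-0.2 nM). Green cells counted at ~48 h and 72 h; reproductive ratio (72 h/48 h) gave % inhibition, IC50 by 4-parameter fit.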

The nature of data set [3]: Aqueous solubility in PBS, pH 7.4. Format: physicochemical. The conditions noted are these: pH 7.4, aqueous buffer, thermodynamic from solid, pH 7.4 phosphate buffered saline, 24 hours, amorphous or crystalline material, read-out: Aqu. Solubility. The procedure, abridged:
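Excess solid suspended at 0.5 mg/mL in PBS pH 7.4 and stirred 24 hours. Filtrate (0.45 μm) diluted 1:1 with ACN:H2O and quantified by UPLC against a standard curve; residual solid phase checked by XRPD and PLM.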

What is called IC50 is the midpoint of a concentration-inhibition curve. As usually defined, the solubility is the dissolved amount per volume that the medium holds.

Values after ≈ are worked out from the molar mass of the structure shown. Where two headings read alike, the source gives them in different places.

With `C#C[C@]1(CO)O[C@@H](n2ccc3c(N)nc(Cl)nc32)C[C@@H]1OC(=O)C(C)C` [Example 2, (2R,3S,5R)-5-(4-amino-2-chloro-7H-pyrrolo[2,3-d]pyrimidin-7-yl)-2-ethynyl-2-(hydroxymethyl)tetrahydrofuran-3-yl isobutyrate], in data set [1], the half-life is 48.4 h. In addition, in data set [2], the IC50 was 41 nM. Also, the solubility at 24 h in data set [3] (phosphate buffered saline) came to 136 µg/mL (≈ 359 µM).

`C#C[C@]1(COC(=O)C(C)C)O[C@@H](n2ccc3c(N)nc(Cl)nc32)C[C@@H]1OC(=O)C(C)C` [Example 42, (2R,3S,5R)-5-(4-amino-2-chloro-7H-pyrrolo[2,3-d]pyrimidin-7-yl)-2-ethynyl-2-((isobutyryloxy)methyl)tetrahydrofuran-3-yl isobutyrate]: the half-life in data set [1] is below 0.25 h. In data set [2], the IC50 amounted to 10.9 nM. The solubility at 24 h in data set [3] (phosphate buffered saline) is below 1 µg/mL.

Take `C#C[C@]1(COC(=O)CCCC)O[C@@H](n2ccc3c(N)nc(Cl)nc32)C[C@@H]1O` [Example 15, ((2R,3S,5R)-5-(4-amino-2-chloro-7H-pyrrolo[2,3-d]pyrimidin-7-yl)-2-ethynyl-3-hydroxytetrahydrofuran-2-yl)methyl pentanoate]: the half-life in data set [1] was below 0.25 h. In addition, in data set [2], the IC50 was 2.3 nM. The solubility at 24 h in data set [3] (phosphate buffered saline) is 55 µg/mL (≈ 140 µM).

`C#C[C@]1(CO)O[C@@H](n2ccc3c(N)nc(Cl)nc32)C[C@@H]1OC(=O)CCCC` [Example 3, (2R,3S,5R)-5-(4-amino-2-chloro-7H-pyrrolo[2,3-d]pyrimidin-7-yl)-2-ethynyl-2-(hydroxymethyl)tetrahydrofuran-3-yl pentanoate]: in data set [1], the half-life was 16.7 h. In addition, the IC50 in data set [2] was 3.7 nM. The solubility at 24 h in data set [3] (phosphate buffered saline) worked out at 27 µg/mL (≈ 68.7 µM).

For `C#C[C@]1(CO)O[C@@H](n2ccc3c(N)nc(Cl)nc32)C[C@@H]1OC(=O)OC(C)C` [Example 1, (2R,3S,5R)-5-(4-amino-2-chloro-7H-pyrrolo[2,3-d]pyrimidin-7-yl)-2-ethynyl-2-(hydroxymethyl)tetrahydrofuran-3-yl isopropyl carbonate], in data set [1], the half-life is 19.1 h. Also, in data set [2], the IC50 came to 74 nM. Moreover, the solubility at 24 h in data set [3] (phosphate buffered saline) was determined as 42 µg/mL (≈ 106 µM).

For `C#C[C@]1(CO)O[C@@H](n2ccc3c(N)nc(Cl)nc32)C[C@@H]1OC(=O)c1ccccc1` [Example 5, (2R,3S,5R)-5-(4-amino-2-chloro-7H-pyrrolo[2,3-d]pyrimidin-7-yl)-2-ethynyl-2-(hydroxymethyl)tetrahydrofuran-3-yl benzoate], the half-life in data set [1] is 57.7 h. Moreover, the half-maximal inhibitory concentration (IC50) in data set [2] was 35 nM. In data set [3] (phosphate buffered saline), the solubility at 24 h was below 1 µg/mL.

On to `C#C[C@]1(COC(=O)C(C)C)O[C@@H](n2ccc3c(N)nc(Cl)nc32)C[C@@H]1O` [Example 11, ((2R,3S,5R)-5-(4-amino-2-chloro-7H-pyrrolo[2,3-d]pyrimidin-7-yl)-2-ethynyl-3-hydroxytetrahydrofuran-2-yl)methyl isobutyrate], for which, in data set [1], the half-life is 0.042 h. For the same molecule, the IC50 in data set [2] worked out at 1.9 nM. For the same molecule, the solubility at 24 h in data set [3] (phosphate buffered saline) is 285 µg/mL (≈ 752 µM).

`C#C[C@]1(COC(=O)OC(C)C)O[C@@H](n2ccc3c(N)nc(Cl)nc32)C[C@@H]1O` [Example 23, ((2R,3S,5R)-5-(4-amino-2-chloro-7H-pyrrolo[2,3-d]pyrimidin-7-yl)-2-ethynyl-3-hydroxytetrahydrofuran-2-yl)methyl isopropyl carbonate]: in data set [1], the half-life was 0.028 h. For the same molecule, in data set [2], the 50% inhibitory concentration (IC50) was determined as 2.2 nM. In data set [3] (phosphate buffered saline), the solubility at 24 h is 351 µg/mL (≈ 889 µM).

In the case of `C#C[C@]1(COC(=O)CCCC)O[C@@H](n2ccc3c(N)nc(Cl)nc32)C[C@@H]1OC(=O)CCCC` [Example 7, (2R,3S,5R)-5-(4-amino-2-chloro-7H-pyrrolo[2,3-d]pyrimidin-7-yl)-2-ethynyl-2-((pentanoyloxy)methyl)tetrahydrofuran-3-yl pentanoate], in data set [1], the half-life is 0.036 h. Also, in data set [2], the half-inhibitory concentration (IC50) stood at 2.9 nM. Moreover, in data set [3] (phosphate buffered saline), the solubility at 24 h was below 1 µg/mL.

As to `C#C[C@]1(COC(=O)C(CC)CC)O[C@@H](n2ccc3c(N)nc(Cl)nc32)C[C@@H]1O` [Example 40, ((2R,3S,5R)-5-(4-amino-2-chloro-7H-pyrrolo[2,3-d]pyrimidin-7-yl)-2-ethynyl-3-hydroxytetrahydrofuran-2-yl)methyl 2-ethylbutanoate], the half-life in data set [1] is 1.9 h. Further, the half-inhibitory concentration (IC50) in data set [2] came out at 5.5 nM. In addition, in data set [3] (phosphate buffered saline), the solubility at 24 h amounted to 282 µg/mL (≈ 693 µM).

For the molecule `C#C[C@]1(CO[P@@](=O)(N[C@@H](C)C(=O)OC(C)C)Oc2ccccc2)O[C@@H](n2ccc3c(N)nc(Cl)nc32)C[C@@H]1O` [Example 8, Isopropyl ((S)-(((2R,3S,5R)-5-(4-amino-2-chloro-7H-pyrrolo[2,3-d]pyrimidin-7-yl)-2-ethynyl-3-hydroxytetrahydrofuran-2-yl)methoxy)(phenoxy)phosphoryl)-L-alaninate], the half-life in data set [1] was 13.3 h. For the same molecule, the IC50 in data set [2] amounted to 42 nM. Moreover, in data set [3], the solubility at 24 h came to 304 µg/mL (≈ 526 µM).

`C#C[C@]1(COC(=O)c2ccccc2)O[C@@H](n2ccc3c(N)nc(Cl)nc32)C[C@@H]1OC(=O)c1ccccc1` [Example 6, (2R,3S,5R)-5-(4-amino-2-chloro-7H-pyrrolo[2,3-d]pyrimidin-7-yl)-2-((benzoyloxy)methyl)-2-ethynyltetrahydrofuran-3-yl benzoate]: in data set [1], the half-life was 1.1 h. The half-maximal inhibitory concentration (IC50) in data set [2] came to 44 nM. For the same molecule, the solubility at 24 h in data set [3] (phosphate buffered saline) is below 1 µg/mL.

On to `C#C[C@]1(CO)O[C@@H](n2ccc3c(N)nc(Cl)nc32)C[C@@H]1OC(=O)Oc1ccccc1` [Example 12, (2R,3S,5R)-5-(4-amino-2-chloro-7H-pyrrolo[2,3-d]pyrimidin-7-yl)-2-ethynyl-2-(hydroxymethyl)tetrahydrofuran-3-yl phenyl carbonate], for which the half-life in data set [1] was 0.41 h. In addition, the half-inhibitory concentration (IC50) in data set [2] was found to be 2.9 nM. Moreover, the solubility at 24 h in data set [3] (phosphate buffered saline) was 2.9 µg/mL (≈ 6.76 µM).
